Results from patent US20090233942A1, “Genetic markers associated with response to antidepressants” (priority 2008, published 2009).

Test system: adult patients diagnosed with MDD
Test: Eight-week randomized, double-blind, placebo-controlled study: association of sequenced gene markers (Tables 1-17) with vilazodone response as change of MADRS
Assay type: in vivo, human
Conditions: mean MADRS decrease
Description: There was a wide range of inter-individual variability in response to vilazodone as well as to placebo and the active comparators. This variability may be partially due to genetic differences among the individuals treated. This example illustrates a randomized, double-blind, placebo-controlled, multicenter, eight-week study designed to discover genetic markers of response to vilazodone in adult patients diagnosed with MDD by the DSM-IV-TR criteria. Patients must have met all of the following inclusion criteria to be considered for enrollment in the study: (1) 18-65 years of age; (2) diagnosis of MDD, single episode or recurrent, according to DSM-IV-TR (296.2/296.3) with a current Major Depressive Episode of less than one year's duration with a minimum duration of at least 4 weeks; (3) HAM-D score≧22 on the first 17 items of the 21-item HAM-D at screening and baseline visits; (4) HAM-D item 1 (depressed mood) score≧2 at the screening visit and the baseline visit; (5) provision of written informed consent to participate; and (6) ability to speak, read and understand English and to respond to questions and follow simple instructions.
Following randomization into vilazodone and placebo groups, patients began the forced titration schedule. Patients received 10 mg qd until Visit 3 (approximately Day 7). At Visit 3 patients received 20 mg qd until Visit 4 (approximately Day 14). At Visit 4 patients received the target dose of 40 mg qd (approximately Day 15). A total of 152 patients completed the vilazodone arm, while 154 patients completed the placebo arm.
This example illustrates genotyping of the study group for the ACE, ATP5C3, BCL2L1, CYP2C9, DRD3, FOS, DTNBP1, GABRG3, GRIA4, LAMA4, MAPK1, NPY1R, OPRD1, OPRM1, PER3, PLCB1, and PSMD1 polymorphic sites selected by the inventors herein for analysis. Genomic DNA was isolated from blood obtained from each individual and amplified target regions containing the polymorphic sites in Tables A-21 to A-37 (Appendix A) were sequenced to determine the genotypes at these polymorphic sites. Tailed (Universal M13 Forward and Reverse) PCR primers were designed using the sequence of SEQ ID NO:1 for ACE, SEQ ID NO:2 for ATP5C3, SEQ ID NO:3 for BCL2L1, SEQ ID NO:4 for CYP2C9, SEQ ID NO:5 for DRD3, SEQ ID NO:6 for FOS, SEQ ID NO:7 for DTNBP1, SEQ ID NO:8 for GABRG3, SEQ ID NO:9 for GRIA4, SEQ ID NO:10 for LAMA4, SEQ ID NO:11 for MAPK1, SEQ ID NO:12 for NPY1R, SEQ ID NO:13 for OPRD1, SEQ ID NO:14 for OPRM1, SEQ ID NO:15 for PER3, SEQ ID NO:16 for PLCB1, and SEQ ID NO:17 for PSMD1. Amplified PCR products were sequenced using Applied Biosystems' Big Dye® Terminator v 3.1 cycle sequencing kit according to manufacturer's instructions. The reaction products were then electrophoresed using an Applied Biosystems 3700 or 3730xl DNA analyzer. Polymorphisms were identified using the Polyphred program, and confirmed by visual inspection.
Haplotypes were estimated from the unphased genotypes using a computer-implemented algorithm for assigning haplotypes to unrelated individuals in a population sample, essentially as described in WO 01/80156. In this method, haplotypes are assigned directly from individuals who are homozygous at all sites or heterozygous at no more than one of the variable sites. This list of haplotypes is then used to deconvolute the unphased genotypes in the remaining (multiply heterozygous) individuals.
This example illustrates analysis of the markers in Tables A-1 to A-17 (Appendix A) for association with vilazodone response. A proprietary algorithm was used as a tool for finding associations between markers and outcomes. The clinical outcomes were improvement in disease over eight weeks of treatment with vilazodone as measured by the MADRS scale. A linear model was first fitted on the covariates, which were treatment center, race, ethnicity, and baseline values. […]

[1] = PLCB1 marker 54, carriers vs non-carriers
[2] = PLCB1 marker 55, carriers vs non-carriers
[3] = PLCB1 marker 56, carriers vs non-carriers
[4] = PLCB1 marker 57, carriers vs non-carriers
[5] = PLCB1 marker 58, carriers vs non-carriers
[6] = PLCB1 marker 59, carriers vs non-carriers
[7] = PLCB1 marker 60, carriers vs non-carriers
[8] = PLCB1 marker 61, carriers vs non-carriers
[9] = PLCB1 marker 62, carriers vs non-carriers
[10] = PLCB1 marker 63, carriers vs non-carriers
[11] = PLCB1 marker 64, carriers vs non-carriers
[12] = PLCB1 marker 65, carriers vs non-carriers
[13] = PLCB1 marker 66, carriers vs non-carriers
[14] = PLCB1 marker 67, carriers vs non-carriers
[15] = PLCB1 marker 68, carriers vs non-carriers
[16] = PLCB1 marker 96, carriers vs non-carriers
[17] = PLCB1 marker 97, carriers vs non-carriers
[18] = PLCB1 marker 98, carriers vs non-carriers
[19] = PLCB1 marker 99, carriers vs non-carriers
[20] = PLCB1 marker 100, carriers vs non-carriers
[21] = PLCB1 marker 101, carriers vs non-carriers
[22] = PLCB1 marker 102, carriers vs non-carriers
[23] = PLCB1 marker 103, carriers vs non-carriers
[24] = PLCB1 marker 104, carriers vs non-carriers
[25] = PLCB1 marker 105, carriers vs non-carriers

For `Cl.N#Cc1ccc2[nH]cc(CCCCN3CCN(c4ccc5oc(C(N)=O)cc5c4)CC3)c2c1` [Vilazodone, 5-{4-[4-(5-Cyano-3-indolyl)-butyl]-1-piperazinyl}-benzofuran-2-carboxamide hydrochloride], the “Response difference (Cauc. only)” value [1] was −6.6, the “Response difference (all ethnic.)” value [1] was −5.1 and the “Response difference (Cauc. only)” value [2] was −5.9. The “Response difference (all ethnic.)” value [2] was −4.3, the “Response difference (Cauc. only)” value [3] was −6 and the “Response difference (all ethnic.)” value [3] was −4.3. The “Response difference (Cauc. only)” value [4] was −6, the “Response difference (all ethnic.)” value [4] was −4.3 and the “Response difference (Cauc. only)” value [5] was −5.4. For the same compound, the “Response difference (all ethnic.)” value [5] was −3.9, the “Response difference (Cauc. only)” value [6] was −6.4 and the “Response difference (all ethnic.)” value [6] was −5.1. For the same compound, the “Response difference (Cauc. only)” value [7] was −5.8, the “Response difference (all ethnic.)” value [7] was −4.6 and the “Response difference (Cauc. only)” value [8] was −6.4. For the same compound, the “Response difference (all ethnic.)” value [8] was −5.2, the “Response difference (Cauc. only)” value [9] was −7 and the “Response difference (all ethnic.)” value [9] was −5.6. For the same compound, the “Response difference (Cauc. only)” value [10] was −7, the “Response difference (all ethnic.)” value [10] was −5.6 and the “Response difference (Cauc. only)” value [11] was −7. For the same compound, the “Response difference (all ethnic.)” value [11] was −5.6, the “Response difference (Cauc. only)” value [12] was −7 and the “Response difference (all ethnic.)” value [12] was −5.6. The “Response difference (Cauc. only)” value [13] was −7, the “Response difference (all ethnic.)” value [13] was −5.6 and the “Response difference (Cauc. only)” value [14] was −7. For the same compound, the “Response difference (all ethnic.)” value [14] was −5.6, the “Response difference (Cauc. only)” value [15] was −7 and the “Response difference (all ethnic.)” value [15] was −5.6. For the same compound, the “Response difference (Cauc. only)” value [16] was −7.3, the “Response difference (all ethnic.)” value [16] was −4.2 and the “Response difference (Cauc. only)” value [17] was −7.3. For the same compound, the “Response difference (all ethnic.)” value [17] was −4.2, the “Response difference (Cauc. only)” value [18] was −7.3 and the “Response difference (all ethnic.)” value [18] was −4.2. The “Response difference (Cauc. only)” value [19] was −7.3, the “Response difference (all ethnic.)” value [19] was −4.2 and the “Response difference (Cauc. only)” value [20] was −7.3. The “Response difference (all ethnic.)” value [20] was −4.2, the “Response difference (Cauc. only)” value [21] was −6 and the “Response difference (all ethnic.)” value [21] was −4.7. The “Response difference (Cauc. only)” value [22] was −6, the “Response difference (all ethnic.)” value [22] was −4.7 and the “Response difference (Cauc. only)” value [23] was −6.6. The “Response difference (all ethnic.)” value [23] was −4.6, the “Response difference (Cauc. only)” value [24] was −6.6 and the “Response difference (all ethnic.)” value [24] was −4.6. The “Response difference (Cauc. only)” value [25] was −6.6 and the “Response difference (all ethnic.)” value [25] was −4.6.
